Source: US20220396819A1, “METHOD FOR PRODUCING PEPTIDE HAVING PHYSIOLOGICAL ACTIVITY, AND PEPTIDE COMPRISING SHORT LINKER” (priority 2019, published 2022)
Like-named read-outs stand apart in the source and are kept apart here. Positions of bridges follow the written chain, without caps; N, C: chain ends. No end group written: not given here.

Target: T1, EpoR (Homo sapiens, UniProt P19235)
T1 construct: host or cells: cells included in the PathHunter eXpress EpoR-JAK2 Functional Assay Kit
T1 sequence (P19235 25-508): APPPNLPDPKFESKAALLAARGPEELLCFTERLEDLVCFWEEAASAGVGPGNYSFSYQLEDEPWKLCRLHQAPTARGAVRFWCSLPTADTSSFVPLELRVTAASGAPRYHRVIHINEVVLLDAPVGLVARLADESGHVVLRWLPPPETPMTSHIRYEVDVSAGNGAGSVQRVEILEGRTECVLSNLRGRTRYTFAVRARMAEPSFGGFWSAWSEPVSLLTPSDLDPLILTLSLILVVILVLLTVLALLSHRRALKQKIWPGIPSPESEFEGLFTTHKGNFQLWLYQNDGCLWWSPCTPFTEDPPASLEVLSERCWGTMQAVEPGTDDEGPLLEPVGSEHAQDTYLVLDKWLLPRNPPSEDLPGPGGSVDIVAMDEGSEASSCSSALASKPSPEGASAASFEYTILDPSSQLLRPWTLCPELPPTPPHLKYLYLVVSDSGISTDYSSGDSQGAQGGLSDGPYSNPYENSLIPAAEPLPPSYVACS
Experiment: EpoR activation ability, PathHunter eXpress EpoR-JAK2 Functional Assay Kit
Format: cell-based
Conditions: for maximum activation ability compared with rhEPO: Example 22, FIG. 35; for EpoR activation, concentration dependence: culture supernatant, FIGS. 35, 55 to 57, 61; for EpoR activation, relative activity among linker lengths: Example 38, cell-free translation solution, FIG. 70
Description: The EpoR activation ability of the EPO-PAS dimer peptide was evaluated using PathHunter (registered trademark) eXpress EpoR-JAK2 Functional Assay Kit (DiscoverX).
(§1) Cells for EPO activity evaluation included in PathHunter (registered trademark) eXpress EpoR-JAK2 Functional Assay Kit were seeded on a 96-well plate and cultured for 24 hours at 37° C. under 5% CO2. […] As a negative control, the culture supernatant (FIG. 32, lane 18) obtained by culturing as described in Example 20 except for using a vector containing no gene for expressing the EPO-PAS dimer peptide, diluted at the same ratio as the culture supernatant containing AET-EPO-PAS8 or AET-EPO-PAS22, was added. The prepared Substrate Reagent was added to the cells stimulated at room temperature for 3 hours, and the cells were incubated for 60 minutes. The chemiluminescence intensity was quantified with a Nivo plate reader (Perkin Elmer).
The EpoR activation ability of the EPO-PAS dimer peptide linker variant was evaluated using PathHunter (registered trademark) eXpress EpoR-JAK2 Functional Assay Kit (DiscoverX).
as §1, with “48,” for “32,”, “26)” for “18)”, “30” for “20”
The EpoR activation ability of the stabilized EPO-PAS dimer peptide was evaluated using PathHunter (registered trademark) eXpress EpoR-JAK2 Functional Assay Kit (DiscoverX).
Cells for EPO activity evaluation included in PathHunter (registered trademark) eXpress EpoR-JAK2 Functional Assay Kit were seeded on a 96-well plate and cultured for 24 hours at 37° C. under 5% CO2. To the cells, a culture supernatant containing 14.2 μg/L to 220 pg/L AET-EPO-PAS22, AET-EPO-PAS22-PAS200, or AET-EPO-PAS22-PAS600 (cultured as described in Example 20 or 33) was added. As a negative control, the culture supernatant (FIG. 58, lane 20) obtained by culturing as described in Example 33 except for using a vector containing no gene for expressing the EPO-PAS dimer peptide, diluted at the same ratio as the culture supernatant containing AET-EPO-PAS22, AET-EPO-PAS22-PAS200, or AET-EPO-PAS22-PAS600, was added. The prepared Substrate Reagent was added to the cells stimulated at room temperature for 3 hours, and the cells were incubated for 60 minutes. The chemiluminescence intensity was quantified with a Nivo plate reader (Perkin Elmer).
Cells for EPO activity evaluation included in PathHunter (registered trademark) eXpress EpoR-JAK2 Functional Assay Kit were seeded on a 96-well plate and cultured for 24 hours at 37° C. under 5% CO2. To the cells, a cell-free translation solution with translated AET-EPO-PAS8, AET-EPO-PAS49-b, or AET-EPO-PAS100-b diluted to a predetermined concentration was added. As a negative control, a cell-free translation solution with untranslated peptide, diluted at the same ratio as the cell-free translation solution with translated AET-EPO-PAS8, AET-EPO-PAS49, or AET-EPO-PAS100, was added. The prepared Substrate Reagent was added to the cells stimulated at room temperature for 3 hours, and the cells were incubated for 60 minutes. The chemiluminescence intensity was quantified with a Nivo plate reader (Perkin Elmer).

[1] = Example 22, Table 4, dimers as culture supernatant, read-out: EC50 (g/L) (converted)
[2] = Example 35, Table 7, AET-EPO-PAS22 value is that of Example 22

AETGGLYACHMGPMTWVCQPLRGAAPAAPAPGGLYACHMGPMTWVCQPLRG (disulfide 9-18, 37-46) [AET-EPO-PAS8]
maximum activation ability compared with rhEPO: almost the same as that of rhEPO | EC50 [1]: 36 pM | EpoR activation, concentration dependence: activated EpoR in a concentration-dependent manner

AETGGLYACHMGPMTWVCQPLRGAAPAAPAPAAPAAPAPAAPAAPAPAAPAAPAPAAPAAPAPAAPAAPAPAGGLYACHMGPMTWVCQPLRG (disulfide 9-18, 78-87) [AET-EPO-PAS49]
EC50 (read-out: EC50 (g/L) (converted)): 501 pM

AETGGLYACHMGPMTWVCQPLRGAAPAAPAPAAPAAPAPAAPAAPGGLYACHMGPMTWVCQPLRG (disulfide 9-18, 51-60) [AET-EPO-PAS22]
maximum activation ability compared with rhEPO: almost the same as that of rhEPO | EC50 [1]: 53.1 pM | EpoR activation, concentration dependence: activated EpoR in a concentration-dependent manner

MAETGGLYACHMGPMTWVCQPLRGAAPAAPAPGGLYACHMGPMTWVCQPLRG (disulfide 10-19, 38-47) [MAET-EPO-PAS8]
EpoR activation, relative activity among linker lengths: higher activity than MAET-EPO-PAS100-b

AETGGLYACHMGPMTWVCQPLRGGGGGSGGGGSGGGGSGGGGSGGGGLYACHMGPMTWVCQPLRG (disulfide 9-18, 51-60) [AET-EPO-GS22]
EC50: 216 pM

AETGGLYACHMGPMTWVCQPLRGGGGGSGGGGGLYACHMGPMTWVCQPLRG (disulfide 9-18, 37-46) [AET-EPO-GS8]
EC50: 103 pM

B1: AET-EPO-PAS22-PAS200: stabilized EPO-PAS dimer peptide, PAS200 bound to the C-terminus of AET-EPO-PAS22, SEQ ID NO: 144 (protein)
chain: AETGGLYACHMGPMTWVCQPLRGAAPAAPAPAAPAAPAPAAPAAPGGLYACHMGPMTWVCQPLRGAAPAAPAPAAPAAPAPAAPAAPAPAAPAAPAPAAPAAPAPAAPAAPAPAAPAAPAPAAPAAPAPAAPAAPAPAAPAAPAPAAPAAPAPAAPAAPAPAAPAAPAPAAPAAPAPAAPAAPAPAAPAAPAPAAPAAPAPAAPAAPAPAAPAAPAPAAPAAPAPAAPAAPAPAAPAAPAPAAPAAPAPAAPAAPAPAAPAAPAP
EC50 [2]: 0.85 ng/mL

B2: AET-EPO-PAS100: EPO-PAS dimer peptide linker variant, PAS linker of 100 amino acids, SEQ ID NO: 128 (protein)
chain: AETGGLYACHMGPMTWVCQPLRGAAPAAPAPAAPAAPAPAAPAAPAPAAPAAPAPAAPAAPAPAAPAAPAPAAPAAPAPAAPAAPAPAAPAAPAPAAPAAPAPAAPAAPAPAAPAAPAPAAPAGGLYACHMGPMTWVCQPLRG
EC50 (Example 32, Table 6, rhEPO, AET-EPO-PAS8, AET-EPO-PAS22 values are those in Example 22): 6.6 ng/mL

B3: MAETGGLYACHMGPMTWVCQPLRGSAPSPSSAPASASAPASPASASASASPASSPASASSASPAASSASPASSGGLYACHMGPMTWVCQPLRG (peptide)
chain: MAETGGLYACHMGPMTWVCQPLRGSAPSPSSAPASASAPASPASASASASPASSPASASSASPAASSASPASSGGLYACHMGPMTWVCQPLRG
modifications: MAET-EPO-PAS49-b; DISULFID (10)..(19) Disulfid bridge between Cys-10 and Cys-19; DISULFID (79)..(88) Disulfid bridge between Cys-79 and Cys-88
EpoR activation, relative activity among linker lengths: higher activity than MAET-EPO-PAS100-b

B4: AET-EPO-PAS22-PAS600: stabilized EPO-PAS dimer peptide, PAS600 bound to the C-terminus of AET-EPO-PAS22, SEQ ID NO: 145 (protein)
chain: AETGGLYACHMGPMTWVCQPLRGAAPAAPAPAAPAAPAPAAPAAPGGLYACHMGPMTWVCQPLRGAAPAAPAPAAPAAPAPAAPAAPAPAAPAAPAPAAPAAPAPAAPAAPAPAAPAAPAPAAPAAPAPAAPAAPAPAAPAAPAPAAPAAPAPAAPAAPAPAAPAAPAPAAPAAPAPAAPAAPAPAAPAAPAPAAPAAPAPAAPAAPAPAAPAAPAPAAPAAPAPAAPAAPAPAAPAAPAPAAPAAPAPAAPAAPAPAAPAAPAPAAPAAPAPAAPAAPAPAAPAAPAPAAPAAPAPAAPAAPAPAAPAAPAPAAPAAPAPAAPAAPAPAAPAAPAPAAPAAPAPAAPAAPAPAAPAAPAPAAPAAPAPAAPAAPAPAAPAAPAPAAPAAPAPAAPAAPAPAAPAAPAPAAPAAPAPAAPAAPAPAAPAAPAPAAPAAPAPAAPAAPAPAAPAAPAPAAPAAPAPAAPAAPAPAAPAAPAPAAPAAPAPAAPAAPAPAAPAAPAPAAPAAPAPAAPAAPAPAAPAAPAPAAPAAPAPAAPAAPAPAAPAAPAPAAPAAPAPAAPAAPAPAAPAAPAPAAPAAPAPAAPAAPAPAAPAAPAPAAPAAPAPAAPAAPAPAAPAAPAPAAPAAPAPAAPAAPAPAAPAAPAPAAPAAPAPAAPAAPAP
EC50 [2]: 0.32 ng/mL
